This is an account of results in article PMC3304435 (Biochemistry, 2012).

Some results are limits rather than exact numbers.

The assay deals with Escherichia coli RtcB ligase (Escherichia coli, UniProt P46850). Format: biochemical. The settings on record: Mn2+; 3′-P / 5′-OH tRNA-mimic RNA substrate; estimated upper limit.

As a reminder, the Km is the concentration of substrate that gives half-maximal velocity.

Chain of Escherichia coli RtcB ligase (P46850 whole entry): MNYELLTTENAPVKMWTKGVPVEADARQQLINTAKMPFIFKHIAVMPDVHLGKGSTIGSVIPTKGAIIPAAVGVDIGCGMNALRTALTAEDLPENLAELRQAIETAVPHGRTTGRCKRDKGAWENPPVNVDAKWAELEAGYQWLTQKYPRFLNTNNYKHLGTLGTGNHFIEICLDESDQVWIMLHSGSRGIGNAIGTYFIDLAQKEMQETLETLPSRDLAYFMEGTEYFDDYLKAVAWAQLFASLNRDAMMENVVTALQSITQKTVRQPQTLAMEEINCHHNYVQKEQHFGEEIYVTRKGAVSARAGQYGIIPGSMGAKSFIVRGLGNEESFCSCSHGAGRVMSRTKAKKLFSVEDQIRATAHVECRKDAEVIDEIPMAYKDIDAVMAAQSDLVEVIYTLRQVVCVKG

`Nc1nc2c(ncn2[C@@H]2O[C@H](COP(=O)(O)OP(=O)(O)OP(=O)(O)O)[C@@H](O)[C@H]2O)c(=O)[nH]1` [GTP]: the Michaelis constant (Km) was < 16 µM.
